Measurements published in US20260345555A1, “Compositions and Methods for Protecting Salivary Glands from Off-Target Radiation Damage” (University of Rochester, priority 2022, published 2026).

Experiments:
[1] = system: Reduced glutathione in salivary gland cell clusters (SGm); assay: Glutathione assay in salivary gland tissue chip, 4 days post-radiation (15 Gy); also first screen of Selleck library at 100 μM; type: cell-based, mouse; conditions: for Estimated EC50, Glutathione: nonlinear fit in Prism of dose response curves; for prevention of radiation-induced reduction of glutathione levels: 4 days post-radiation; as to Glutathione (radioprotection): key: +: radioprotection; ~: partial radioprotection; —: no radioprotection
Summary of the method: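 Mouse submandibular gland cell clusters (20–100 μm) in PEG hydrogel on microbubble chips, cultured 4 days to form SGm, then dosed 30 min before and during 15 Gy irradiation and washed out 30 min after. Glutathione measured 4 days post-radiation; library compounds screened at 100 μM, hits matching 0 Gy levels.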

[2] = system: lymphocyte cells; conditions: cited from earlier work
[3] = in vivo; cited from earlier work
[4] = in vivo; cited from earlier work; remark: listed apart in the source
[5] = system: COX-1; conditions: role: inhibitor; cited from earlier work
[6] = system: COX-2; conditions: role: inhibitor; cited from earlier work

For `CCn1cc(C(=O)O)c(=O)c2cc(F)c(N3CCNCC3)nc21` [Enoxacin (Penetrex)], the “radioprotection in dose response, glutathione assay” value ([1]; dose response, 15 Gy) is listed as “protection only at higher concentrations”, the “Estimated EC50, Glutathione” value ([1]; 15 Gy) is listed as 2.4 µM and the EC50 ([2]; radioprotection, read-out: EC50, viability of lymphocyte cells) is listed as 13 µM. The “radioprotection of lymphocytes” value ([2]; viability of lymphocytes as primary readout) was “robust radioprotectors”.

For `CCCCC1C(=O)N(c2ccccc2)N(c2ccccc2)C1=O` [Phenylbutazone], the “concentration range of radioprotection, glutathione assay” value ([1]; dose response, 15 Gy) is listed as 0.1 to 100 µM, the “Estimated EC50, Glutathione” value ([1]; 15 Gy) is listed as 0.08 µM and the bioavailability [3] is listed as “up to 90%”. For the same molecule, the half-life [3] was 50 to 105 h, the “adverse effects” value [4] was “rare but severe blood disorders, including anemia and leukopenia” and the “COX-1 inhibition” value [5] was “inhibits”. The “COX-2 inhibition” value [6] was “inhibits”.

In the case of `NCCCNCCS` [WR-1065], the “prevention of radiation-induced reduction of glutathione levels” value ([1]; 0.1 mM, 15 Gy) is reported as “ineffective”, the “prevention of radiation-induced reduction of glutathione levels” value ([1]; 0.4 mM, 15 Gy) is reported as “ineffective” and the “Glutathione (radioprotection)” value ([1]; 1 mM) is reported as “+”. The “prevention of radiation-induced reduction of glutathione levels” value ([1]; 1 mM, 15 Gy) was “significant protection”, the “Glutathione (radioprotection)” value ([1]; 4 mM) was “+” and the “prevention of radiation-induced reduction of glutathione levels” value ([1]; 4 mM, 15 Gy) was “significant protection”.

In the case of Doripenem hydrate, the “radioprotection in dose response, glutathione assay” value ([1]; dose response, 15 Gy) is reported as “protection only at higher concentrations” and the “Estimated EC50, Glutathione” value ([1]; 15 Gy) is reported as 8.6 µM.
